According to patent publication US20260209234A1, “SUBSTITUTED DIHYDROPYRROLO[3,4-D]PYRIMIDINE COMPOUNDS AND THEIR USE IN TREATING MEDICAL CONDITIONS” (Karuna Therapeutics, Inc., priority 2022, published 2026):

How the values were obtained:
hM4 receptors = biological target: T1, hM4 receptors (Homo sapiens, UniProt P08173); experiment: Human M4 PAM pERK assay; assay type: cell-based; settings: CHO cells expressing hM4; EC20 of acetylcholine (10 nM final); TR-FRET
T1 construct: expressed in transfected cells; host or cells: CHO cells
T1 sequence (P08173 1-479): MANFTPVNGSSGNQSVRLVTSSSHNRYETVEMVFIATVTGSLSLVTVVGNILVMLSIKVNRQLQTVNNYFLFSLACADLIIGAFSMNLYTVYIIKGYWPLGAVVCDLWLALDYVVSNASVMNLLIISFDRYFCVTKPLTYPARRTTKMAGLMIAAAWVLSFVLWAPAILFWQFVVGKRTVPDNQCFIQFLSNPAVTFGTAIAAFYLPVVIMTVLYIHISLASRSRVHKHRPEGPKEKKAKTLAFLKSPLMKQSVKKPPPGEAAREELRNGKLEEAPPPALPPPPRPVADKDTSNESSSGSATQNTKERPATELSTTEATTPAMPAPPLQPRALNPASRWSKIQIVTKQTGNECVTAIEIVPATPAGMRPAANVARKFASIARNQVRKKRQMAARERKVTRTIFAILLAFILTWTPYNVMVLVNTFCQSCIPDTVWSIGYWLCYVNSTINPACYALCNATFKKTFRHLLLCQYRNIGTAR
Description: (§1) Chinese hamster ovary (CHO) cells expressing either hM4 or rM4 receptors were frozen in assay ready vials (5×10^6 cells/vial) after bulking-up in culture. The day before an assay, vial(s) were thawed and cells seeded in 384 well white proxiplates at 1000/well for hM4 cells and at 2000/well for rM4 cells, in 10 μL of growth media (Hams/F12 with glutamax and 10% FCS) and incubated overnight at 37° C./5% CO2.
(§2) On the following morning, the growth media was removed by ‘flicking out’ over a bin, patting the inverted plate onto tissue, and then replacing with 10 μL of wash media (Hams/F12 with glutamax and 8 mM HEPES, NB: serum free). Then, the wash media was removed in the same way and replaced with 8 μL/well of the serum free media. Plates were then re-incubated for a further 4 hours at 37° C./5% CO2.
(§3) Compounds for testing were solubilized to 10 mM in DMSO and compound addition plates, consisting of ten-point concentration response curves (CRC) in duplicate points (10 μM top concentration, 1/2 log dilution series), were prepared by acoustic dispensing and the compound management group.
(§4) After the 4-hour incubation in serum free media, a 4 μL aliquot of the 3× compound solution containing an EC20 of acetylcholine (10 nM final concentration) was added to the cell plate using a 384 well plate to plate transfer. Then, the plate lid was replaced, and the cells incubated for 5 mins at 37° C./5% CO2. Following this final incubation, all cellular processes were stopped by the addition of 4 μL/well of lysis and blocking buffer and plates were incubated for 30 minutes at RT on an orbital shaker (gentle setting). Then, a final addition of 4 μL/well of antibody detection mix, containing both the Europium-Cryptate (donor) and d2 (acceptor) tagged detection components, was added followed by a further 2-hour incubation at RT, and then the plate was read using a TR-FRET (time resolved fluorescence resonance energy transfer) based protocol.

rM4 receptors = biological target: T2, rM4 receptors (Rattus norvegicus, UniProt P08485); experiment: Rat M4 PAM pERK assay; assay type: cell-based; settings: CHO cells expressing rM4; EC20 of acetylcholine (10 nM final); TR-FRET
T2 construct: expressed in transfected cells; host or cells: CHO cells
T2 sequence (P08485 1-478): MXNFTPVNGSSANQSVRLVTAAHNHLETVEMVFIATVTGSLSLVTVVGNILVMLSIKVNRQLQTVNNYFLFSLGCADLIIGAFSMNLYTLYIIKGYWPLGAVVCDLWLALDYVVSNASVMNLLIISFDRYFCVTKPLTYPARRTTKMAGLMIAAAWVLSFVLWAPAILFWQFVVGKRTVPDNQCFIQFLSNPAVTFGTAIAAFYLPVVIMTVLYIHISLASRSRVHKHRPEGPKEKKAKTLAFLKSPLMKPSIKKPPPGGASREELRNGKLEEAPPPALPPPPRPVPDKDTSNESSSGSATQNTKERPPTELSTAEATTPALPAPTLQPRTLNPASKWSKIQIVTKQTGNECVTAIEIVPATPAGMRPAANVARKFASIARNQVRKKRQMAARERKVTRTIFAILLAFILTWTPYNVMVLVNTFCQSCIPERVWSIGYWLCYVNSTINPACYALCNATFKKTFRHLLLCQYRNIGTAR
Description: as §1, §2, §3, §4

Row | EC50 (hM4 receptors) [nM] | EC50 (rM4 receptors) [nM] | SMILES
1 | 500 to 2000 | 500 to 2000 | COc1nc(C)nc2c1CN(C(=O)CC1CN(c3ccnc(C(F)(F)F)c3)C1)C2C (racemic) [Compound I-61, 1-(4-Methoxy-2,7-dimethyl-5,7-dihydro-6H-pyrrolo[3,4-d]pyrimidin-6-yl)-2-(1-(2-(trifluoromethyl)pyridin-4-yl)azetidin-3-yl)ethan-1-one]
2 | 100 to 500 | 500 to 2000 | COc1nc(C#N)nc2c1C(C)N(C(=O)CC1CN(c3ncns3)C1)C2 (single isomer, unassigned) [Compound I-3, 6-(2-(1-(1,2,4-Thiadiazol-5-yl)azetidin-3-yl)acetyl)-4-methoxy-5-methyl-6,7-dihydro-5H-pyrrolo[3,4-d]pyrimidine-2-carbonitrile]
3 | ≤ 100 | ≤ 100 | COc1nc(C#N)nc2c1C(C)N(C(=O)CC1CN(c3cc(F)cc(F)c3)C1)C2 (single isomer, unassigned) [Compound I-9, 6-(2-(1-(3,5-Difluorophenyl)azetidin-3-yl)acetyl)-4-methoxy-5-methyl-6,7-dihydro-5H-pyrrolo[3,4-d]pyrimidine-2-carbonitrile]
4 | ≥ 2000 | ≥ 2000 | COc1nc(C#N)nc2c1C(C)N(C(=O)CC1CN(c3cc(F)cc(F)c3)C1)C2 (single isomer, unassigned) [Compound I-10, 6-(2-(1-(3,5-Difluorophenyl)azetidin-3-yl)acetyl)-4-methoxy-5-methyl-6,7-dihydro-5H-pyrrolo[3,4-d]pyrimidine-2-carbonitrile]
5 | 100 to 500 | 100 to 500 | COc1nc(C#N)nc2c1C(C)N(C(=O)CC1CN(c3cccc(C(F)(F)F)c3)C1)C2 (single isomer, unassigned) [Compound I-16, 4-Methoxy-5-methyl-6-(2-(1-(3-(trifluoromethyl)phenyl)azetidin-3-yl)acetyl)-6,7-dihydro-5H-pyrrolo[3,4-d]pyrimidine-2-carbonitrile]
6 | ≥ 2000 | ≥ 2000 | COc1cc(N2CC(CC(=O)N3Cc4nc(C#N)nc(OC)c4C3C)C2)ccn1 (single isomer, unassigned) [Compound I-17, 4-Methoxy-6-(2-(1-(2-methoxypyridin-4-yl)azetidin-3-yl)acetyl)-5-methyl-6,7-dihydro-5H-pyrrolo[3,4-d]pyrimidine-2-carbonitrile]
7 | ≤ 100 | 500 to 2000 | COc1cc(N2CC(CC(=O)N3Cc4nc(C#N)nc(OC)c4C3C)C2)ccn1 (single isomer, unassigned) [Compound I-18, 4-Methoxy-6-(2-(1-(2-methoxypyridin-4-yl)azetidin-3-yl)acetyl)-5-methyl-6,7-dihydro-5H-pyrrolo[3,4-d]pyrimidine-2-carbonitrile]
8 | 500 to 2000 | ≥ 2000 | COc1nc(C#N)nc2c1C(C)N(C(=O)CC1CN(c3cncnc3)C1)C2 (single isomer, unassigned) [Compound I-26, 4-Methoxy-5-methyl-6-(2-(1-(pyrimidin-5-yl)azetidin-3-yl)acetyl)-6,7-dihydro-5H-pyrrolo[3,4-d]pyrimidine-2-carbonitrile]
9 | ≤ 100 | 500 to 2000 | COc1nc(C)nc2c1C(C)N(C(=O)CC1CN(c3cncnc3)C1)C2 (single isomer, unassigned) [Compound I-59, 1-(4-Methoxy-2,5-dimethyl-5,7-dihydro-6H-pyrrolo[3,4-d]pyrimidin-6-yl)-2-(1-(pyrimidin-5-yl)azetidin-3-yl)ethan-1-one]
10 | 500 to 2000 | 100 to 500 | COc1nc(C#N)nc2c1C(C)N(C(=O)CC1C(C)N(c3ccnc(C(F)(F)F)c3)C1C)C2 (stereo not shown) [Compound I-40, 6-(2-(2,4-Dimethyl-1-(2-(trifluoromethyl)pyridin-4-yl)azetidin-3-yl)acetyl)-4-methoxy-5-methyl-6,7-dihydro-5H-pyrrolo[3,4-d]pyrimidine-2-carbonitrile]
11 | 100 to 500 | 500 to 2000 | COc1nc(C)nc2c1CN(C(=O)CC1CN(c3cccnc3)C1)C2 [Compound I-41, 1-(4-Methoxy-2-methyl-5,7-dihydro-6H-pyrrolo[3,4-d]pyrimidin-6-yl)-2-(1-(pyridin-3-yl)azetidin-3-yl)ethan-1-one]
